# Results as given in patent publication US12157730B2, “Heteroaryl derivative, method for producing same, and pharmaceutical composition comprising same as effective component” (VORONOI INC., priority 2019, dated 2024).
# Biological target: T1, Ba/F3 cell EGFR Exon20 ins NPH (Homo sapiens, UniProt P00533, INS773NPH)
# T1 construct: expressed in transfected cells; host or cells: Ba/F3
# Test: Ba/F3 cell proliferation suppression, EGFR Exon20 ins NPH
# Type: cell-based
# Details: GI50 class; Ba/F3 cell line with NPH inserted at Exon20 of EGFR; 72 hours
# Outline: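 Growth suppression determined as GI50 following 72 h exposure across 12 concentrations up to 50 um, with viability by luminescent ATP assay (CellTiter-Glo).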
row,Compound,Ba/F3 (NPH) Activity
1,"C=CC(=O)Nc1cc(Nc2cc(N3OCC[C@@H]3c3cc(F)ccc3F)ncn2)c(OC)cc1N1CC[C@H](N2CCOCC2)C1 [compound 302, N-(5-((6-((R)-3-(2,5-difluorophenyl)isoxazolidine-2-yl)pyrimidine-4-yl)amino)-4-methoxy-2-((S)-3-morpholinopyrolidine-1-yl)phenyl)acrylamide]",B (50 nM ≤ GI50 < 500 nM)
2,"C=CC(=O)Nc1cc(Nc2cc(N3OCC[C@@H]3c3ccc(Cl)c(Cl)c3)ncn2)c(OC)cc1N1CCN(CC2CC2)CC1 [compound 687, N-(2-(4-(cyclopropylmethyl)piperazine-1-yl)-5-((6-((R)-3-(3,4-dichlorophenyl)isoxazolidine-2-yl)pyrimidine-4-yl)amino)-4-methoxyphenyl) acrylamide]",A (GI50 < 50 nM)
3,"C=CC(=O)Nc1cc(Nc2cc(N3OCC[C@@H]3Cc3cccc(Cl)c3C)ncn2)c(OC)cc1N1CCC(N2CCN(C3CC3)[C@@H](C)C2)CC1 [compound 1028, N-(5-((6-((S)-3-(3-chloro-2-methylbenzyl)isoxazolidine-2-yl)pyrimidine-4-yl)amino)-2-(4-((S)-4-cyclopropyl-3-methylpiperazine-1-yl)piperidine-1-yl)-4-methoxyphenyl) acrylamide]",A (GI50 < 50 nM)
4,"C=CC(=O)Nc1cc(Nc2cc(N3OCC[C@@H]3c3cc(F)cc(F)c3)ncn2)c(OC)cc1N1CC[C@@H](N2CCOCC2)C1 [Example 271, N-(5-((6-((R)-3-(3,5-difluorophenyl)isoxazolidine-2-yl)pyrimidine-4-yl)amino)-4-methoxy-2-((R)-3-morpholinopyrolidine-1-yl)phenyl)acrylamide]",B (50 nM ≤ GI50 < 500 nM)
5,"C=CC(=O)Nc1cc(Nc2cc(N3OCC[C@@H]3c3ccc(Cl)c(Cl)c3)ncn2)c(OC)cc1N1CCN(CCN(C)C)CC1 [compound 686, N-(5-((6-((R)-3-(3,4-dichlorophenyl)isoxazolidine-2-yl)pyrimidine-4-yl)amino)-2-(4-(2-(dimethylamino)ethyl)piperazine-1-yl)-4-methoxyphenyl) acrylamide]",B (50 nM ≤ GI50 < 500 nM)
6,"C=CC(=O)Nc1cc(Nc2cc(N3OCC[C@@H]3c3cccc(F)c3Cl)ncn2)c(OC)cc1N1CCC(N2CCN(C(C)C)CC2)CC1 [compound 661, N-(5-((6-((R)-3-(2-chloro-3-fluorophenyl)isoxazolidine-2-yl)pyrimidine-4-yl)amino)-2-(4-(4-isopropylpiperazine-1-yl)piperidine-1-yl)-4-methoxyphenyl) acrylamide]",A (GI50 < 50 nM)
7,"C=CC(=O)Nc1cc(Nc2cc(N3OCC[C@@H]3c3ccc4ccccc4c3)ncn2)c(OC)cc1N1CCN(CC)CC1 [compound 514, N-(2-(4-ethylpiperazine-1-yl)-4-methoxy-5-((6-((R)-3-(naphthalene-2-yl)isoxazolidine-2-yl)pyrimidine-4-yl)amino)phenyl)acrylamide]",B (50 nM ≤ GI50 < 500 nM)
8,"C=CC(=O)Nc1cc(Nc2cc(N3OCC[C@@H]3Cc3cccc(F)c3C)ncn2)c(OC)cc1N1CCC(N2CCN(C3CC3)[C@@H](C)C2)CC1 [compound 1005, N-(2-(4-((S)-4-cyclopropyl-3-methylpiperazine-1-yl)piperidine-1-yl)-5-((6-((S)-3-(3-fluoro-2-methylbenzyl)isoxazolidine-2-yl)pyrimidine-4-yl)amino)-4-methoxyphenyl) acrylamide]",A (GI50 < 50 nM)
9,"C=CC(=O)Nc1cc(Nc2cc(N3OCC[C@@H]3c3ccc(Cl)c(Cl)c3)ncn2)c(OC)cc1N1C[C@H]2C[C@@H]1CO2 [compound 671, N-(2-((1R,4R)-2-oxa-5-azabicyclo[2.2.1]heptane-5-yl)-5-((6-((R)-3-(3,4-dichlorophenyl)isoxazolidine-2-yl)pyrimidine-4-yl)amino)-4-methoxyphenyl) acrylamide]",A (GI50 < 50 nM)
10,"C=CC(=O)Nc1cc(Nc2cc(N3OCC[C@@H]3c3ccc(F)cc3F)ncn2)c(OC)cc1N1CCC(N2CCC(N3CCN(C)CC3)CC2)CC1 [compound 477, N-(5-((6-((R)-3-(2,4-difluorophenyl)isoxazolidine-2-yl)pyrimidine-4-yl)amino)-4-methoxy-2-(4-(4-methylpiperazine-1-yl)-[1,4'-bipiperidine]-1'-yl)phenyl)acrylamide]",A (GI50 < 50 nM)
11,"C=CC(=O)Nc1cc(Nc2cc(N3OCC[C@@H]3Cc3cccc(Cl)c3OC)ncn2)c(OC)cc1N1CCN(C2CC2)CC1 [compound 1053, N-(5-((6-((S)-3-(3-chloro-2-methoxybenzyl)isoxazolidine-2-yl)pyrimidine-4-yl)amino)-2-(4-cyclopropylpiperazine-1-yl)-4-methoxyphenyl) acrylamide]",A (GI50 < 50 nM)
12,"C=CC(=O)Nc1cc(Nc2cc(N3OCC[C@@H]3c3cccc(Cl)c3F)ncn2)c(OC)cc1N1CCC(N2CCN(C3COC3)CC2)CC1 [Example 86, N-(5-((6-((R)-3-(3-chloro-2-fluorophenyl)isoxazolidine-2-yl)pyrimidine-4-yl)amino)-4-methoxy-2-(4-(4-(oxetane-3-yl)piperazine-1-yl)piperidine-1-yl)phenyl)acrylamide]",A (GI50 < 50 nM)

# The remaining lines, values ahead:
row,Ba/F3 (NPH) Activity,Compound
1,B (50 nM ≤ GI50 < 500 nM),"C=CC(=O)Nc1cc(Nc2cc(N3OCC[C@@H]3c3ccc(Cl)c(Cl)c3)ncn2)c(OC)cc1N1CCC(N2CCN(C3CC3)CC2)CC1 [compound 932, N-(2-(4-(4-cyclopropylpiperazine-1-yl)piperidine-1-yl)-5-((6-((R)-3-(3,4-dichlorophenyl)isoxazolidine-2-yl)pyrimidine-4-yl)amino)-4-methoxyphenyl) acrylamide]"
2,A (GI50 < 50 nM),"C=CC(=O)Nc1cc(Nc2cc(N3OCC[C@@H]3c3c(F)ccc(F)c3F)ncn2)c(OC)cc1N1CCC(N2CCO[C@@H](C)C2)CC1 [compound 645, N-(4-methoxy-2-(4-((S)-2-methylmorpholino)piperidine-1-yl)-5-((6-((R)-3-(2,3,6-trifluorophenyl)isoxazolidine-2-yl)pyrimidine-4-yl)amino)phenyl)acrylamide]"
3,A (GI50 < 50 nM),"C=CC(=O)Nc1cc(Nc2cc(N3OCC[C@@H]3c3cccc(Cl)c3)ncn2)c(OC)cc1N1CC[C@H](N(C)C)C1 [compound 468, N-(5-((6-((R)-3-(3-chlorophenyl)isoxazolidine-2-yl)pyrimidine-4-yl)amino)-2-((S)-3-(dimethylamino)pyrolidine-1-yl)-4-methoxyphenyl) acrylamide]"
4,A (GI50 < 50 nM),"C=CC(=O)Nc1cc(Nc2cc(N3OCC[C@@H]3c3ccccc3)ncn2)c(OC)cc1N1CCC(N2CCN(C(C)C)CC2)CC1 [Example 283, N-(2-(4-(4-isopropylpiperazine-1-yl)piperidine-1-yl)-4-methoxy-5-((6-((R)-3-phenylisoxazolidine-2-yl)pyrimidine-4-yl)amino)phenyl) acrylamide]"
5,A (GI50 < 50 nM),"C#Cc1cccc([C@H]2CCON2c2cc(Nc3cc(NC(=O)C=C)c(N4CCC(N5C[C@@H]6C[C@H]5CO6)CC4)cc3OC)ncn2)c1 [compound 618, N-(2-(4-((1S,4S)-2-oxa-5-azabicyclo[2.2.1]heptane-5-yl)piperidine-1-yl)-5-((6-((R)-3-(3-ethynylphenyl)isoxazolidine-2-yl)pyrimidine-4-yl)amino)-4-methoxyphenyl) acrylamide]"
6,A (GI50 < 50 nM),"C=CC(=O)Nc1cc(Nc2cc(N3OCC[C@@H]3c3ccc(F)c(Cl)c3)ncn2)c(OC)cc1N1CCC(N2CC[C@H](N(C)C)C2)CC1 [compound 764, N-(5-((6-((R)-3-(3-chloro-4-fluorophenyl)isoxazolidine-2-yl)pyrimidine-4-yl)amino)-2-(4-((S)-3-(dimethylamino)pyrolidine-1-yl)piperidine-1-yl)-4-methoxyphenyl) acrylamide]"
7,A (GI50 < 50 nM),"C=CC(=O)Nc1cc(Nc2cc(N3OCC[C@@H]3c3cc(F)ccc3F)ncn2)c(OC)cc1N1CCC(N2CC[C@@H](N(C)C)C2)CC1 [compound 304, N-(5-((6-((R)-3-(2,5-difluorophenyl)isoxazolidine-2-yl)pyrimidine-4-yl)amino)-2-(4-((R)-3-(dimethylamino)pyrolidine-1-yl)piperidine-1-yl)-4-methoxyphenyl) acrylamide]"
8,A (GI50 < 50 nM),"C=CC(=O)Nc1cc(Nc2cc(N3OCC[C@@H]3c3ccc(Cl)c(F)c3)ncn2)c(OC)cc1N1CCC(N2C[C@@H]3C[C@H]2CO3)CC1 [compound 802, N-(2-(4-((1S,4S)-2-oxa-5-azabicyclo [2.2.1]heptane-5-yl)piperidine-1-yl)-5-((6-((R)-3-(4-chloro-3-fluorophenyl)isoxazolidine-2-yl)pyrimidine-4-yl)amino)-4-methoxyphenyl) acrylamide]"
9,A (GI50 < 50 nM),"C=CC(=O)Nc1cc(Nc2cc(N3OCC[C@@H]3c3ccc(Cl)cc3)ncn2)c(OC)cc1N1CCC(N2C[C@@H](C)O[C@@H](C)C2)CC1 [compound 868, N-(5-((6-((R)-3-(4-chlorophenyl)isoxazolidine-2-yl)pyrimidine-4-yl)amino)-2-(4-((2S,6R)-2,6-dimethylmorpholino)piperidine-1-yl)-4-methoxyphenyl) acrylamide]"
10,B (50 nM ≤ GI50 < 500 nM),"C=CC(=O)Nc1cc(Nc2cc(N3OCC[C@@H]3c3ccc4ccccc4c3)ncn2)c(OC)cc1N1CCC(N2C[C@H]3C[C@@H]2CO3)CC1 [compound 557, N-(2-(4-((1R,4R)-2-oxa-5-azabicyclo[2.2.1]heptane-5-yl)piperidine-1-yl)-4-methoxy-5-((6-((R)-3-(naphthalene-2-yl)isoxazolidine-2-yl)pyrimidine-4-yl)amino)phenyl)acrylamide]"
